In the supplement of paper PMC8882468:

test system: HCI-025 (organoid from a breast cancer xenograft); experiment: CTG-3D luminescence at 96 h relative to day-0 seeding control (ratio to day 0); higher = more growth / less cytotoxicity; PDxO 3D drug screen, 96 h, CTG-3D normalised to day-0 seeding control.; conditions: 1 µM; days in culture: 172

Going from `O=C(c1ccc(F)c(F)c1Nc1ccc(I)cc1F)N1CC(O)([C@@H]2CCCCN2)C1` [cobimetinib] to `NC(=O)c1cccc2cn(-c3ccc([C@@H]4CCCNC4)cc3)nc12` [niraparib], the “CTG-3D luminescence at 96 h” value rises from 1.47 to 2.08.

Compared with `C[C@H](NC(=O)CCC(F)(F)F)C(=O)N[C@@H]1C(=O)N(CCO)c2ncccc2-c2ccccc21` [crenigacestat], `CS(=O)(=O)c1ccc(C(=O)Nc2ccc(Cl)c(-c3ccccn3)c2)c(Cl)c1` [vismodegib] is lower in “CTG-3D luminescence at 96 h” value: 3.2 for the first, 2.97 for the second.

`Cc1cc(Nc2ncc(Cl)c(Nc3ccccc3S(=O)(=O)C(C)C)n2)c(OC(C)C)cc1C1CCNCC1` [ceritinib] was tested, and the “CTG-3D luminescence at 96 h” value was 2.79.

same assay, conditions: 1 µM; days in culture: 209

First: C[C@@H]1COCCN1c1cc(C2([S@](C)(=N)=O)CC2)nc(-c2cc[nH]c3nccc2-3)n1 [ceralasertib]
Second: NC1(C(=O)N[C@@H](CCO)c2ccc(Cl)cc2)CCN(c2nc[nH]c3nccc2-3)CC1 [capivasertib]
The “CTG-3D luminescence at 96 h” value of the first is higher: 0.856 for the first, 0.472 for the second.

Going from `CCN1CCN(Cc2ccc(Nc3ncc(F)c(-c4cc(F)c5nc(C)n(C(C)C)c5c4)n3)nc2)CC1` [abemaciclib] to `Cc1cc(Nc2ncc(Cl)c(Nc3ccccc3S(=O)(=O)C(C)C)n2)c(OC(C)C)cc1C1CCNCC1` [ceritinib], the “CTG-3D luminescence at 96 h” value falls from 2.46 to 1.33.

Going from `CC(C)n1nc(-c2ccc3oc(N)nc3c2)c2c(N)ncnc21` [sapanisertib] to `NC(=O)c1cccc2cn(-c3ccc([C@@H]4CCCNC4)cc3)nc12` [niraparib], the “CTG-3D luminescence at 96 h” value rises from 0.256 to 1.9.

First: O=C(c1ccc(F)c(F)c1Nc1ccc(I)cc1F)N1CC(O)([C@@H]2CCCCN2)C1 [cobimetinib]
Second: CS(=O)(=O)c1ccc(C(=O)Nc2ccc(Cl)c(-c3ccccn3)c2)c(Cl)c1 [vismodegib]
The “CTG-3D luminescence at 96 h” value of the first is lower: 1.15 for the first, 2.47 for the second.

In the case of `C[C@H](NC(=O)CCC(F)(F)F)C(=O)N[C@@H]1C(=O)N(CCO)c2ncccc2-c2ccccc21` [crenigacestat], the “CTG-3D luminescence at 96 h” value was 1.76.

same assay, conditions: 1 µM; days in culture: 218

Going from `C[C@@H]1COCCN1c1cc(C2([S@](C)(=N)=O)CC2)nc(-c2cc[nH]c3nccc2-3)n1` [ceralasertib] to `NC1(C(=O)N[C@@H](CCO)c2ccc(Cl)cc2)CCN(c2nc[nH]c3nccc2-3)CC1` [capivasertib], the “CTG-3D luminescence at 96 h” value falls from 0.97 to 0.565.

Going from `CCN1CCN(Cc2ccc(Nc3ncc(F)c(-c4cc(F)c5nc(C)n(C(C)C)c5c4)n3)nc2)CC1` [abemaciclib] to `Cc1cc(Nc2ncc(Cl)c(Nc3ccccc3S(=O)(=O)C(C)C)n2)c(OC(C)C)cc1C1CCNCC1` [ceritinib], the “CTG-3D luminescence at 96 h” value falls from 1.46 to 1.36.

Going from `CC(C)n1nc(-c2ccc3oc(N)nc3c2)c2c(N)ncnc21` [sapanisertib] to `NC(=O)c1cccc2cn(-c3ccc([C@@H]4CCCNC4)cc3)nc12` [niraparib], the “CTG-3D luminescence at 96 h” value rises from 0.231 to 1.03.

First: O=C(c1ccc(F)c(F)c1Nc1ccc(I)cc1F)N1CC(O)([C@@H]2CCCCN2)C1 [cobimetinib]
Second: CS(=O)(=O)c1ccc(C(=O)Nc2ccc(Cl)c(-c3ccccn3)c2)c(Cl)c1 [vismodegib]
The “CTG-3D luminescence at 96 h” value of the first is lower: 1.18 for the first, 1.56 for the second.

In the case of `C[C@H](NC(=O)CCC(F)(F)F)C(=O)N[C@@H]1C(=O)N(CCO)c2ncccc2-c2ccccc21` [crenigacestat], the “CTG-3D luminescence at 96 h” value was 1.75.

same assay, conditions: 10 µM; days in culture: 172

First: C[C@@H]1COCCN1c1cc(C2([S@](C)(=N)=O)CC2)nc(-c2cc[nH]c3nccc2-3)n1 [ceralasertib]
Second: NC1(C(=O)N[C@@H](CCO)c2ccc(Cl)cc2)CCN(c2nc[nH]c3nccc2-3)CC1 [capivasertib]
The “CTG-3D luminescence at 96 h” value of the first is lower: 0.359 for the first, 0.474 for the second.

First: CCN1CCN(Cc2ccc(Nc3ncc(F)c(-c4cc(F)c5nc(C)n(C(C)C)c5c4)n3)nc2)CC1 [abemaciclib]
Second: Cc1cc(Nc2ncc(Cl)c(Nc3ccccc3S(=O)(=O)C(C)C)n2)c(OC(C)C)cc1C1CCNCC1 [ceritinib]
The “CTG-3D luminescence at 96 h” value of the first is higher: 1.91 for the first, 0.00721 for the second.

Compared with `CC(C)n1nc(-c2ccc3oc(N)nc3c2)c2c(N)ncnc21` [sapanisertib], `NC(=O)c1cccc2cn(-c3ccc([C@@H]4CCCNC4)cc3)nc12` [niraparib] is higher in “CTG-3D luminescence at 96 h” value: 0.145 for the first, 0.426 for the second.

Going from `O=C(c1ccc(F)c(F)c1Nc1ccc(I)cc1F)N1CC(O)([C@@H]2CCCCN2)C1` [cobimetinib] to `CS(=O)(=O)c1ccc(C(=O)Nc2ccc(Cl)c(-c3ccccn3)c2)c(Cl)c1` [vismodegib], the “CTG-3D luminescence at 96 h” value rises from 0.608 to 1.37.

In the case of `C[C@H](NC(=O)CCC(F)(F)F)C(=O)N[C@@H]1C(=O)N(CCO)c2ncccc2-c2ccccc21` [crenigacestat], the “CTG-3D luminescence at 96 h” value was 1.64.

same assay, conditions: 10 µM; days in culture: 209

Compared with `C[C@@H]1COCCN1c1cc(C2([S@](C)(=N)=O)CC2)nc(-c2cc[nH]c3nccc2-3)n1` [ceralasertib], `NC1(C(=O)N[C@@H](CCO)c2ccc(Cl)cc2)CCN(c2nc[nH]c3nccc2-3)CC1` [capivasertib] is lower in “CTG-3D luminescence at 96 h” value: 0.386 for the first, 0.37 for the second.

Going from `CCN1CCN(Cc2ccc(Nc3ncc(F)c(-c4cc(F)c5nc(C)n(C(C)C)c5c4)n3)nc2)CC1` [abemaciclib] to `CC(C)n1nc(-c2ccc3oc(N)nc3c2)c2c(N)ncnc21` [sapanisertib], the “CTG-3D luminescence at 96 h” value falls from 1.27 to 0.217.

First: O=C(c1ccc(F)c(F)c1Nc1ccc(I)cc1F)N1CC(O)([C@@H]2CCCCN2)C1 [cobimetinib]
Second: C[C@H](NC(=O)CCC(F)(F)F)C(=O)N[C@@H]1C(=O)N(CCO)c2ncccc2-c2ccccc21 [crenigacestat]
The “CTG-3D luminescence at 96 h” value of the first is lower: 1.26 for the first, 1.57 for the second.
